In PubChem BioAssay AID2060353 (Molecular Pharmacology Branch, DTP, NCI, 2025):

Test system: 521955-158-R2-J5-PDC spheroids with stroma, growth inhibition
Test: Anticancer human tumor 521955-158-R2-J5-PDC patient-derived pancreatic carcinoma cell line growth inhibition [TAK]
Conditions: for IC50: curve of first compound; for viability, T/C: stronger effect = lower value
Text: Combinatorial screen of targeted agents with TAK-243 and ipatasertib in multi-cell type tumor spheroids
A high-throughput screen of multi-cell type tumor spheroids was designed to identify active combinations of targeted small molecules and TAK-243 or ipatasertib. Complex spheroids include a stromal component modeled by human endothelial cells (HUVEC) and fibroblasts modeled by human mesenchymal stem cells (MSCs). The concentration ranges selected for each drug and investigational agent were based upon clinically achievable concentrations if the clinical Cmax of the agent was known.
Compounds. The drugs and investigational agents: TAK-243 (785004), ipatasertib (767898), everolimus (733504), selumetinib (741078), bortezomib (756655), trametinib (758246), ixazomib (758254), vemurafenib (761431), dabrafenib (764134), sapanisertib (764658), alpelisib (765974), and copanlisib (816437), were obtained from the National Cancer Institute (NCI) Developmental Therapeutics Program Chemical Repository. The FDA-approved anticancer drug set is available from the NCI Developmental Therapeutics Program. […] The stock solutions were prepared in dimethyl sulfoxide (DMSO, Sigma-Aldrich, St. Louis, MO, cat. D2650) at 800-fold the tested concentration and stored at -70 degrees C prior to their use. All drugs and investigational agents were tested over a range starting from a high concentration at or near the clinical Cmax and decreasing in half-log increments. If the clinical Cmax for an agent had not been determined, the highest concentration tested was 10 microM.
NCI60 Cell Culture. NCI60 cell lines were obtained from the NCI Developmental Therapeutics Program Tumor Repository. For each lot of cells, the Repository performed Applied Biosystems AmpFLSTR Identifiler testing with PCR amplification to confirm consistency with the published Identifier STR profile for each cell line. Cells were kept in continuous culture for no more than 20 passages. The optimal seeding densities for each of the cell lines at each time point assessed were determined prior to performing the concentration response studies. Briefly, the NCI60 human tumor lines were grown as monolayers in RPMI 1640 medium supplemented with 10% FBS and 2 mmol/L L-glutamine.
An additional 2 lines were from the NCI60 cell line panel including melanomas, MALME-3M and SK-MEL-2. Pooled donor human umbilical vein endothelial cells (HUVEC, Lonza, cat. CC-2519) and human mesenchymal stem cells (hMSC, Lonza, cat. PT-2501) were purchased from Lonza (Walkersville, MD).
PDMR cell lines were grown in complete medium (DC medium): Dulbecco's modified Eagle's medium (DMEM)/F12 supplemented with 5% fetal bovine serum (FBS), 2 mM L-glutamine, 100 U/mL penicillin and 100 µg/ml streptomycin, 0.4 µg/ml hydrocortisone, 10 ng/ml epidermal growth factor (EGF) recombinant human protein, 24 µg/mL adenine, and 0.1 mg/mL primocin. During culture from frozen stock vials, PDMR cells were cultured in the same medium containing 10 µM Y-27632 (see Table 3). The PDCs were cultured in complete DMEM/F12 media without 10 microM Y-27632 dihydrochloride for at least two passages prior to the screen. The pooled donor HUVEC and hMSC were cultured in endothelial cell growth medium 2 (PromoCell, Heidelberg, Germany, cat. C-22011) and mesenchymal stem cell growth medium 2 (PromoCell, cat. C-28009), respectively. For all experiments, HUVEC and hMSC were used at passages </=5.
For the pre-screen, cell seeding densities were determined from a titration spanning the range from 5,000 to 313 cells per well. The mct-spheroids including 60% malignant cells, 25% HUVEC and 15% MSC dispensed as a mixture into U-bottom Ultra-Low Attachment 384-well plates (Corning, NY)
High-throughput Drug Combination Screening.
Prior to their inoculation into 384-well plates, malignant cells, HUVEC, and hMSC were removed from T flasks using TrypLE express (Thermo Fisher Scientific, cat. 12605036) and harvested by centrifugation for 5 min at 233 x g. […]
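Further: spheroids exposed to drugs for seven days before readout.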
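Wherever viability, T/C is given: 100% = DMSO vehicle control viability.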

Compound `COC1CC2CCC(C)C(O)(O2)C(=O)C(=O)N2CCCCC2C(=O)OC(C(C)CC2CCC(OCCO)C(OC)C2)CC(=O)C(C)C=C(C)C(O)C(OC)C(=O)C(C)CC(C)C=CC=CC=C1C` (stereo not given) + CC(C)NCC(C(=O)N1CCN(c2ncnc3c2C(C)CC3O)CC1)c1ccc(Cl)cc1 has an IC50 (second compound 0.3 µM) greater than 0.1 µM, an IC50 (second compound 0.949 µM) greater than 0.1 µM and an IC50 (second compound 3 µM) greater than 0.1 µM. The IC50 (second compound 9.49 µM) was greater than 0.1 µM, the IC50 (second compound 30 µM) was less than 0.000316 µM and the viability, T/C (second compound 0.3 µM, first compound 0.000316 µM) was 118%. The viability, T/C (second compound 0.3 µM, first compound 0.001 µM) was 95.9%, the viability, T/C (second compound 0.3 µM, first compound 0.00316 µM) was 77.3% and the viability, T/C (second compound 0.3 µM, first compound 0.01 µM) was 76%. For the same compound, the viability, T/C (second compound 0.3 µM, first compound 0.0316 µM) was 82.4%, the viability, T/C (second compound 0.3 µM, first compound 0.1 µM) was 65.5% and the viability, T/C (second compound 0.949 µM, first compound 0.000316 µM) was 79.4%. The viability, T/C (second compound 0.949 µM, first compound 0.001 µM) was 75.1%, the viability, T/C (second compound 0.949 µM, first compound 0.00316 µM) was 79.8% and the viability, T/C (second compound 0.949 µM, first compound 0.01 µM) was 79.7%. It also gave a viability, T/C (second compound 0.949 µM, first compound 0.0316 µM) of 89%, a viability, T/C (second compound 0.949 µM, first compound 0.1 µM) of 86.7% and a viability, T/C (second compound 3 µM, first compound 0.000316 µM) of 97.8%. It also gave a viability, T/C (second compound 3 µM, first compound 0.001 µM) of 98.3%, a viability, T/C (second compound 3 µM, first compound 0.00316 µM) of 93.9% and a viability, T/C (second compound 3 µM, first compound 0.01 µM) of 80.9%. It also gave a viability, T/C (second compound 3 µM, first compound 0.0316 µM) of 75.7%, a viability, T/C (second compound 3 µM, first compound 0.1 µM) of 76.2% and a viability, T/C (second compound 9.49 µM, first compound 0.000316 µM) of 78.3%. It also gave a viability, T/C (second compound 9.49 µM, first compound 0.001 µM) of 84.5%, a viability, T/C (second compound 9.49 µM, first compound 0.00316 µM) of 78.6% and a viability, T/C (second compound 9.49 µM, first compound 0.01 µM) of 68.3%. It also gave a viability, T/C (second compound 9.49 µM, first compound 0.0316 µM) of 60.9%, a viability, T/C (second compound 9.49 µM, first compound 0.1 µM) of 60.6% and a viability, T/C (second compound 30 µM, first compound 0.000316 µM) of 46.4%. It also gave a viability, T/C (second compound 30 µM, first compound 0.001 µM) of 42.2%, a viability, T/C (second compound 30 µM, first compound 0.00316 µM) of 33.8% and a viability, T/C (second compound 30 µM, first compound 0.01 µM) of 26.7%. For the same compound, the viability, T/C (second compound 30 µM, first compound 0.0316 µM) was 31.2% and the viability, T/C (second compound 30 µM, first compound 0.1 µM) was 32.4%.

Compound `Cn1cnc2c(F)c(Nc3ccc(Br)cc3Cl)c(C(=O)NOCCO)cc21` + CC(C)NCC(C(=O)N1CCN(c2ncnc3c2C(C)CC3O)CC1)c1ccc(Cl)cc1 has an IC50 (second compound 0.3 µM) of 0.0257 µM, an IC50 (second compound 0.949 µM) of less than 0.00949 µM and an IC50 (second compound 3 µM) of less than 0.00949 µM. It also gave an IC50 (second compound 9.49 µM) of 0.0202 µM, an IC50 (second compound 30 µM) of less than 0.00949 µM and a viability, T/C (second compound 0.3 µM, first compound 0.00949 µM) of 64.4%. The viability, T/C (second compound 0.3 µM, first compound 0.03 µM) was 42.6%, the viability, T/C (second compound 0.3 µM, first compound 0.0949 µM) was 36.7% and the viability, T/C (second compound 0.3 µM, first compound 0.3 µM) was 38.3%. It also gave a viability, T/C (second compound 0.3 µM, first compound 0.949 µM) of 27.7%, a viability, T/C (second compound 0.3 µM, first compound 3 µM) of 20.4% and a viability, T/C (second compound 0.949 µM, first compound 0.00949 µM) of 48.9%. For the same compound, the viability, T/C (second compound 0.949 µM, first compound 0.03 µM) was 38.9%, the viability, T/C (second compound 0.949 µM, first compound 0.0949 µM) was 28.5% and the viability, T/C (second compound 0.949 µM, first compound 0.3 µM) was 20.9%. The viability, T/C (second compound 0.949 µM, first compound 0.949 µM) was 15.8%, the viability, T/C (second compound 0.949 µM, first compound 3 µM) was 5.06% and the viability, T/C (second compound 3 µM, first compound 0.00949 µM) was 44.8%. For the same compound, the viability, T/C (second compound 3 µM, first compound 0.03 µM) was 38.5%, the viability, T/C (second compound 3 µM, first compound 0.0949 µM) was 28.6% and the viability, T/C (second compound 3 µM, first compound 0.3 µM) was 25%. The viability, T/C (second compound 3 µM, first compound 0.949 µM) was 14.1%, the viability, T/C (second compound 3 µM, first compound 3 µM) was 5.64% and the viability, T/C (second compound 9.49 µM, first compound 0.00949 µM) was 61%. It also gave a viability, T/C (second compound 9.49 µM, first compound 0.03 µM) of 45%, a viability, T/C (second compound 9.49 µM, first compound 0.0949 µM) of 29% and a viability, T/C (second compound 9.49 µM, first compound 0.3 µM) of 21.3%. It also gave a viability, T/C (second compound 9.49 µM, first compound 0.949 µM) of 13.5%, a viability, T/C (second compound 9.49 µM, first compound 3 µM) of 5.67% and a viability, T/C (second compound 30 µM, first compound 0.00949 µM) of 40.2%. It also gave a viability, T/C (second compound 30 µM, first compound 0.03 µM) of 21.9%, a viability, T/C (second compound 30 µM, first compound 0.0949 µM) of 17.9% and a viability, T/C (second compound 30 µM, first compound 0.3 µM) of 10%. For the same compound, the viability, T/C (second compound 30 µM, first compound 0.949 µM) was 3.77% and the viability, T/C (second compound 30 µM, first compound 3 µM) was 1.5%.
